The record followed here is patent US20100047844A1, “DIAGNOSTIC MARKER FOR FABRY DISEASE” (Academisch Ziekenhuis bij de Universiteit van Amsterdam, priority 2006, published 2010).

SMILES strings stand for the structures. Entries after “also recorded” stand apart in the source; their conditions may differ.

The target in one data set is T1, alpha-galactosidase B (Homo sapiens, UniProt P17050).
T1 sequence (P17050 18-411): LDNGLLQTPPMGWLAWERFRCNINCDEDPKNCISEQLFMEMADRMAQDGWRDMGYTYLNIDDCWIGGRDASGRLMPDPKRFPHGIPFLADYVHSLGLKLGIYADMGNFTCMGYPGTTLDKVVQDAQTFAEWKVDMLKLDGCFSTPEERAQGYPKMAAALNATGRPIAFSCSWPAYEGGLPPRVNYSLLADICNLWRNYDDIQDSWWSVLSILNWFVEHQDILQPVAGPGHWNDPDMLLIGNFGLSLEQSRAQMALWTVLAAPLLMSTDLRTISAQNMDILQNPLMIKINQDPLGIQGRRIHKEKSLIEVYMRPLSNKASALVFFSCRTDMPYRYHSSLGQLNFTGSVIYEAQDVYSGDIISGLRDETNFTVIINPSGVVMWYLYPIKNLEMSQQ
As to the kind of experiment: Inhibition of alpha-galactosidase B by lyso-CTH. The data set is classed as biochemical.

Data set [1] in a line: Partitioning of lyso-CTH in extraction from plasma samples. It is filed as physicochemical. The method, then: An optimal extraction procedure for lyso-CTH from plasma samples was established. A double extraction was carried out, first a Bligh and Dyer extraction followed by butanol extraction.
A further data set deals with T2, alpha-galactosidase A (Homo sapiens, UniProt P06280).
T2 sequence (P06280 32-429): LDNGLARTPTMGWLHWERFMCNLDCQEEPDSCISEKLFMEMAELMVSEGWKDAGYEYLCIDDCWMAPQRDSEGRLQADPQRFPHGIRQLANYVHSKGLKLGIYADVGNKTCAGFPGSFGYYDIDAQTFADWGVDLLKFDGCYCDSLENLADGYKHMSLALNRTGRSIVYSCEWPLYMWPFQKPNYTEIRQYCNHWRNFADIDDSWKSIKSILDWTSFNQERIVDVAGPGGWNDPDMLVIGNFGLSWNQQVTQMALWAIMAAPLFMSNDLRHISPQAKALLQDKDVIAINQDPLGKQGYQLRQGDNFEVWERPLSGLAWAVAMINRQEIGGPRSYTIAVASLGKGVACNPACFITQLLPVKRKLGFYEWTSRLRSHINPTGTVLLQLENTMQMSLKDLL
Nature of the data set: Inhibition of alpha-galactosidase A by lyso-CTH. It is filed as biochemical.

For another data set, the system named is SMC-41 cell line. As to the kind of experiment: In vitro toxicity: 3H thymidine incorporation and proliferation in SMC-41 cell line. The data set is classed as cell-based. The note with it: lyso-CTH 0.065-0.65 μM, as found in plasma of Fabry patients. Here is the method:
The toxic effect of lyso-CTH was determined in vitro in SMC-41 cell line. ^3H thymidine incorporation (per 24 h) was determined as a function of lyso-CTH concentration.

Turning to `CCCCCCCCCCCCC/C=C/[C@@H](O)[C@@H](N)CO[C@@H]1O[C@H](CO)[C@@H](O[C@@H]2O[C@H](CO)[C@H](O[C@H]3O[C@H](CO)[C@H](O)[C@H](O)[C@H]3O)[C@H](O)[C@H]2O)[C@H](O)[C@H]1O` [lyso-CTH, lyso-ceramide trihexosamide], at alpha-galactosidase B, the “inhibition of alpha-galactosidase B” value was “potent inhibitor; also recorded: inhibits”. In data set [1] (Bligh and Dyer extraction), the “Partitioning of lyso-CTH (% of total), lower phase” value is on record as 10 % of total and the “Partitioning of lyso-CTH (% of total), upper phase” value is on record as 90 % of total. Moreover, in data set [1] (butanol/water extraction), the “Partitioning of lyso-CTH (% of total), lower phase” value is 2 % of total and the “Partitioning of lyso-CTH (% of total), upper phase” value is on record as 99 % of total. Moreover, at alpha-galactosidase A, the “inhibition of alpha-galactosidase A” value is recorded as “potent inhibitor; also recorded: inhibits”. In the data set on SMC-41 cell line, the “3H thymidine incorporation (per 24 h)” value is reported as “increased isotope incorporation” and the “smooth muscle cell proliferation” value is listed as “promote in vitro smooth muscle cell proliferation; also recorded: increased proliferation”.
